Data: patent US9840510B1, “Pyrazolo[1,5-a]pyrimidinyl carboxamide compounds and their use in the treatment of medical disorders” (Lysosomal Therapeutics Inc., priority 2016, dated 2017)
≈ marks a conversion by molar mass, not a printed value.

Assay: Compound solubility in water
Assay type: physicochemical

Row | solubility | SMILES
1 | 1.5 µg/mL (≈ 4.42 µM) | Cc1cc(-c2cccc(F)n2)nc2c(C(=O)N[C@H](C)C3CC3)cnn12 [III-135]
2 | 5.1 µg/mL (≈ 15.9 µM) | Cc1cc(-c2ccccc2)nc2c(C(=O)N[C@@H](C)C3CC3)cnn12 [III-136]
3 | 0.8 µg/mL (≈ 2.17 µM) | COc1cc(F)cc(-c2cc(C)n3ncc(C(=O)N[C@@H](C)C4CC4)c3n2)c1 [III-137]
4 | 2.5 µg/mL (≈ 6.79 µM) | COc1c(F)cccc1-c1cc(C)n2ncc(C(=O)N[C@@H](C)C3CC3)c2n1 [III-138]
5 | 0.1 µg/mL (≈ 0.237 µM) | COc1c(F)cccc1-c1cc(C)n2ncc(C(=O)NC(C3CC3)C(F)(F)F)c2n1 (stereo not shown) [III-139]
6 | 1.1 µg/mL (≈ 2.78 µM) | COc1c(F)cccc1-c1cc(C)n2ncc(C(=O)NC(C)C(F)(F)F)c2n1 (stereo not shown) [III-140]
7 | 1.1 µg/mL (≈ 2.56 µM) | COc1c(C#N)cccc1-c1cc(C)n2ncc(C(=O)NC(C3CC3)C(F)(F)F)c2n1 (stereo not shown) [III-141]
8 | 2.2 µg/mL (≈ 5.45 µM) | COc1c(C#N)cccc1-c1cc(C)n2ncc(C(=O)NC(C)C(F)(F)F)c2n1 (stereo not shown) [III-142]
9 | 17.4 µg/mL (≈ 46.3 µM) | COc1c(C#N)cccc1-c1cc(C)n2ncc(C(=O)N[C@@H](C)C3CC3)c2n1 [III-143]
10 | 0.2 µg/mL (≈ 0.543 µM) | COc1cc(-c2cc(C)n3ncc(C(=O)N[C@@H](C)C4CC4)c3n2)ccc1F [III-145]
11 | 0.9 µg/mL (≈ 2.44 µM) | COc1cc(F)ccc1-c1cc(C)n2ncc(C(=O)N[C@@H](C)C3CC3)c2n1 [III-146]
12 | 0.4 µg/mL (≈ 0.947 µM) | COc1cc(-c2cc(C)n3ncc(C(=O)NC(C4CC4)C(F)(F)F)c3n2)ccc1F (stereo not shown) [III-147]
13 | 1.2 µg/mL (≈ 3.03 µM) | COc1cc(-c2cc(C)n3ncc(C(=O)NC(C)C(F)(F)F)c3n2)ccc1F (stereo not shown) [III-148]
14 | 1.1 µg/mL (≈ 2.6 µM) | COc1cc(F)ccc1-c1cc(C)n2ncc(C(=O)NC(C3CC3)C(F)(F)F)c2n1 (stereo not shown) [III-149]
15 | 0.7 µg/mL (≈ 1.77 µM) | COc1cc(F)ccc1-c1cc(C)n2ncc(C(=O)NC(C)C(F)(F)F)c2n1 (stereo not shown) [III-150]
16 | 0.1 µg/mL (≈ 0.24 µM) | Cc1cc(-c2ccc(F)cc2C#N)nc2c(C(=O)NC(C3CC3)C(F)(F)F)cnn12 (stereo not shown) [III-151]
17 | 0.5 µg/mL (≈ 1.38 µM) | Cc1cc(-c2ccc(F)cc2C#N)nc2c(C(=O)N[C@@H](C)C3CC3)cnn12 [III-152]
18 | 4.5 µg/mL (≈ 12.4 µM) | Cc1cc(-c2ccc(F)cc2C#N)nc2c(C(=O)N[C@H](C)C3CC3)cnn12 [III-153]
19 | 0.7 µg/mL (≈ 1.79 µM) | Cc1cc(-c2ccc(F)cc2C#N)nc2c(C(=O)NC(C)C(F)(F)F)cnn12 (stereo not shown) [III-154]
20 | 0.3 µg/mL (≈ 0.767 µM) | Cc1cc(-c2ccc(F)cc2C#N)nc2c(C(=O)N[C@@H](C)C(F)(F)F)cnn12 [III-156]
21 | 2.9 µg/mL (≈ 7.98 µM) | Cc1cc(-c2ccc(F)c(C#N)c2)nc2c(C(=O)N[C@@H](C)C3CC3)cnn12 [III-157]

Row | solubility | SMILES
22 | 0.3 µg/mL (≈ 0.719 µM) | Cc1cc(-c2ccc(F)c(C#N)c2)nc2c(C(=O)NC(C3CC3)C(F)(F)F)cnn12 (stereo not shown) [III-158]
23 | 3.8 µg/mL (≈ 9.71 µM) | Cc1cc(-c2ccc(F)c(C#N)c2)nc2c(C(=O)NC(C)C(F)(F)F)cnn12 (stereo not shown) [III-159]
24 | 1.1 µg/mL (≈ 2.88 µM) | Cc1cc(-c2ccc(F)c(C(N)=O)c2)nc2c(C(=O)N[C@@H](C)C3CC3)cnn12 [III-160]
25 | 1 µg/mL (≈ 2.39 µM) | Cc1cc(-c2cccc(C(N)=O)n2)nc2c(C(=O)NC(C3CC3)C(F)(F)F)cnn12 (stereo not shown) [III-161]
26 | 1 µg/mL (≈ 2.3 µM) | Cc1cc(-c2ccc(F)c(C(N)=O)c2)nc2c(C(=O)NC(C3CC3)C(F)(F)F)cnn12 (stereo not shown) [III-162]
27 | 0.4 µg/mL (≈ 1.02 µM) | Cc1cc(-c2ccc(F)cc2)nc2c(C(=O)NC(C3CC3)C(F)(F)F)cnn12 (stereo not shown) [III-163]
28 | 1.1 µg/mL (≈ 3 µM) | Cc1cc(-c2ccc(F)cc2)nc2c(C(=O)NC(C)C(F)(F)F)cnn12 (stereo not shown) [III-164]
29 | 4 µg/mL (≈ 12.2 µM) | Cc1cc(NC2CC2)nc2c(C(=O)NC(C)C(F)(F)F)cnn12 (stereo not shown) [III-165]
30 | 10.9 µg/mL (≈ 36.4 µM) | Cc1cc(NC2CC2)nc2c(C(=O)N[C@@H](C)C3CC3)cnn12 [III-166]
31 | 0.7 µg/mL (≈ 1.8 µM) | Cc1cc(-c2ccc3ocnc3c2)nc2c(C(=O)N[C@H](C)C(F)(F)F)cnn12 [III-167]
32 | 0.3 µg/mL (≈ 0.771 µM) | Cc1cc(-c2ccc3ocnc3c2)nc2c(C(=O)N[C@@H](C)C(F)(F)F)cnn12 [III-168]
33 | 1.6 µg/mL (≈ 4.11 µM) | Cc1cc(-c2ccc3ocnc3c2)nc2c(C(=O)NC(C)C(F)(F)F)cnn12 (stereo not shown) [III-169]
34 | 0.5 µg/mL (≈ 1.34 µM) | Cc1cc(-n2ccc(Cl)n2)nc2c(C(=O)NC(C)C(F)(F)F)cnn12 (stereo not shown) [III-170]
35 | 0.5 µg/mL (≈ 1.31 µM) | Cc1cc(-n2ccc(F)n2)nc2c(C(=O)NC(C3CC3)C(F)(F)F)cnn12 (stereo not shown) [III-172]
36 | 1.4 µg/mL (≈ 3.66 µM) | Cc1cc(-n2ccc(F)n2)nc2c(C(=O)N[C@H](C3CC3)C(F)(F)F)cnn12 [III-173]
37 | 1 µg/mL (≈ 2.21 µM) | Cc1cc(-c2cccc(-c3ncccn3)n2)nc2c(C(=O)NC(C3CC3)C(F)(F)F)cnn12 (stereo not shown) [III-175]
38 | 0.2 µg/mL (≈ 0.452 µM) | Cc1cc(-c2cccc(-c3ncon3)c2)nc2c(C(=O)NC(C3CC3)C(F)(F)F)cnn12 (stereo not shown) [III-176]
39 | 0.2 µg/mL (≈ 0.441 µM) | Cc1cc(-c2cccc(-c3ncncn3)c2)nc2c(C(=O)NC(C3CC3)C(F)(F)F)cnn12 (stereo not shown) [III-177]
40 | 0.7 µg/mL (≈ 1.97 µM) | Cc1cc(-c2ccns2)nc2c(C(=O)NC(C)C(F)(F)F)cnn12 (stereo not shown) [III-178]
41 | 1.1 µg/mL (≈ 2.81 µM) | Cc1cc(N2CCCC(F)(F)C2)nc2c(C(=O)NC(C)C(F)(F)F)cnn12 (stereo not shown) [III-179]
42 | 4.8 µg/mL (≈ 12.7 µM) | Cc1cc(N2CCC(F)(F)C2)nc2c(C(=O)NC(C)C(F)(F)F)cnn12 (stereo not shown) [III-180]

Row | solubility | SMILES
43 | 4.5 µg/mL (≈ 11.5 µM) | Cc1cc(N2CCC(F)(F)CC2)nc2c(C(=O)NC(C)C(F)(F)F)cnn12 (stereo not shown) [III-181]
44 | 0.2 µg/mL (≈ 0.549 µM) | Cc1cc(-c2cccc3c2OCO3)nc2c(C(=O)N[C@@H](C)C3CC3)cnn12 [III-182]
45 | 0.5 µg/mL (≈ 1.2 µM) | Cc1cc(-c2cccc3c2OCO3)nc2c(C(=O)NC(C3CC3)C(F)(F)F)cnn12 (stereo not shown) [III-183]
46 | 1.1 µg/mL (≈ 3 µM) | Cc1cc(C)n2ncc(C(=O)NC(c3ccc(F)cc3)C(F)(F)F)c2n1 (stereo not shown) [III-184]
47 | 6.3 µg/mL (≈ 16.2 µM) | Cc1cc(-c2ccc(C#N)o2)nc2c(C(=O)NC(C3CC3)C(F)(F)F)cnn12 (stereo not shown) [III-185]
48 | 0.6 µg/mL (≈ 1.65 µM) | Cc1cc(-c2ccco2)nc2c(C(=O)NC(C3CC3)C(F)(F)F)cnn12 (stereo not shown) [III-186]
49 | 0.5 µg/mL (≈ 1.37 µM) | Cc1cc(-c2ccoc2)nc2c(C(=O)NC(C3CC3)C(F)(F)F)cnn12 (stereo not shown) [III-187]
50 | 0.3 µg/mL (≈ 0.74 µM) | Cc1cc(-c2cscc2C#N)nc2c(C(=O)NC(C3CC3)C(F)(F)F)cnn12 (stereo not shown) [III-188]
51 | 5.1 µg/mL (≈ 12.6 µM) | Cc1cc(-c2sccc2C#N)nc2c(C(=O)NC(C3CC3)C(F)(F)F)cnn12 (stereo not shown) [III-189]
52 | 8.9 µg/mL (≈ 25.8 µM) | Cc1cc(C)n2ncc(C(=O)N[C@H]3CC[C@H](OC(C)(C)C)CC3)c2n1 [III-190]
53 | 26.3 µg/mL (≈ 76.4 µM) | Cc1cc(C)n2ncc(C(=O)N[C@H]3CC[C@H](OCC(C)C)CC3)c2n1 [III-191]
54 | 0.2 µg/mL (≈ 0.53 µM) | Cc1cc(-c2ccc3scnc3c2)nc2c(C(=O)N[C@@H](C)C3CC3)cnn12 [III-192]
55 | 0.4 µg/mL (≈ 1.01 µM) | COc1ccc(F)cc1-c1cc(C)n2ncc(C(=O)NC(C)C(F)(F)F)c2n1 (stereo not shown) [III-194]
56 | 0.01 µg/mL (≈ 0.0252 µM) | COc1ccc(F)cc1-c1cc(C)n2ncc(C(=O)N[C@H](C)C(F)(F)F)c2n1 [III-195]
57 | 6.5 µg/mL (≈ 19.9 µM) | Cc1cc(-c2ccns2)nc2c(C(=O)N[C@@H](C)C3CC3)cnn12 [III-197]
58 | 7.8 µg/mL (≈ 21.2 µM) | Cc1cc(-c2cnccc2F)nc2c(C(=O)NC(C)C(F)(F)F)cnn12 (stereo not shown) [III-199]
59 | 1 µg/mL (≈ 2.61 µM) | Cc1cc(-c2cncc(Cl)c2)nc2c(C(=O)NC(C)C(F)(F)F)cnn12 (stereo not shown) [III-200]
60 | 3.1 µg/mL (≈ 8.08 µM) | Cc1cc(-c2cncc(Cl)c2)nc2c(C(=O)N[C@H](C)C(F)(F)F)cnn12 [III-201]
61 | 2.5 µg/mL (≈ 6.51 µM) | Cc1cc(-c2cncc(Cl)c2)nc2c(C(=O)N[C@@H](C)C(F)(F)F)cnn12 [III-202]
